Test results: patent US20260258022A1, “NOVEL HETEROCYCLIC-SUBSTITUTED PYRIMIDINE DERIVATIVE EXHIBITING CANCER CELL GROWTH INHIBITORY EFFECT, AND PHARMACEUTICAL COMPOSITION CONTAINING SAME” (ONCOBIX CO., LTD., priority 2021, published 2026)
pIC50: −log10 of the molar value.

Key:
[1] = molecular target: ALK (Homo sapiens, UniProt Q9UM73); assay: Kinase inhibitory activity, [33P]-ATP filter assay, ALK; assay type: biochemical; settings: wild-type ALK kinase, scintillation counting
Experimental: (§1) For the compounds of Examples 1 to 8 above, the inhibitory activity against ALK, ALK mutation (ALK(G1202R)), and […] (ALK(L1196M)) was measured, and the results are shown in Table 1 below. […] Crizotinib […] was used as a control drug. • 1. Each kinase was incubated under 8 mM MOPS, pH 7.0, 0.2 mM EDTA, 250 μM KKKGQEEEYVFIE, 1 mM sodium orthovanadate, 5 mM sodium-6-glycerophosphate, 10 mM Magnesium acetate, [^33P]-ATP. • 2. The reaction proceeded by adding the evaluation compound (DMSO solution) and Mg/ATP. • 3. After about 40 minutes at room temperature, the reaction was terminated by adding 10 μL of 0.5% phosphoric acid. • 4. The reaction solution was divided into 0.5% 10 μL and spotted on a P30 filtermat. • 5. It was washed four times with 0.425% phosphoric acid for about 4 minutes. After washing once with methanol, it was dried and analyzed by scintillation counting to measure the IC50 value.

[2] = molecular target: ALK(G1202R) (Homo sapiens, UniProt Q9UM73, G1202R); assay: Kinase inhibitory activity, [33P]-ATP filter assay, ALK(G1202R); assay type: biochemical; settings: ALK point mutant kinase, scintillation counting
Experimental: as §1

[3] = molecular target: ALK(L1196M) (Homo sapiens, UniProt Q9UM73, L1196M); assay: Kinase inhibitory activity, [33P]-ATP filter assay, ALK(L1196M); assay type: biochemical; settings: ALK point mutant kinase, scintillation counting
Experimental: as §1

[4] = test system: H3122 (EML4-ALK v1); assay: Cancer cell growth inhibition, MTT assay, H3122; assay type: cell-based; settings: Homo sapiens, NCI-H3122, 72 hours incubation
Experimental: (§2) The growth inhibitory effects of the compounds in Examples 3, 7, and 8 above on ALK mutant cancer cell lines were measured. Anticancer efficacy activity was measured using H3122 (EML4-ALK v1) and H2228 (EML4-ALK v3) as ALK mutant cell lines by the following method.
(§3) 2×10^5 cells were seeded in a 96-well plate. 24 hours later, each of the compounds in Examples 3, 7, and 8 was treated in a dose-dependent manner, incubated for 72 hours, reacted with 15 uL MTT reagent for 4 hours, and then 100 uL 10% SDS was added thereto and incubated for 24 hours. The change in final OD was read at 595 nm. To analyze the MTT results, IC50 values were measured using prism software.
(§4) APG-2449 was used as a control drug.

[5] = test system: H2228 (EML4-ALK v3); assay: Cancer cell growth inhibition, MTT assay, H2228; assay type: cell-based; settings: Homo sapiens, NCI-H2228, 72 hours incubation
Experimental: as §2, §3, §4

Sequence of ALK(L1196M) (Q9UM73 19-1620 L1196M): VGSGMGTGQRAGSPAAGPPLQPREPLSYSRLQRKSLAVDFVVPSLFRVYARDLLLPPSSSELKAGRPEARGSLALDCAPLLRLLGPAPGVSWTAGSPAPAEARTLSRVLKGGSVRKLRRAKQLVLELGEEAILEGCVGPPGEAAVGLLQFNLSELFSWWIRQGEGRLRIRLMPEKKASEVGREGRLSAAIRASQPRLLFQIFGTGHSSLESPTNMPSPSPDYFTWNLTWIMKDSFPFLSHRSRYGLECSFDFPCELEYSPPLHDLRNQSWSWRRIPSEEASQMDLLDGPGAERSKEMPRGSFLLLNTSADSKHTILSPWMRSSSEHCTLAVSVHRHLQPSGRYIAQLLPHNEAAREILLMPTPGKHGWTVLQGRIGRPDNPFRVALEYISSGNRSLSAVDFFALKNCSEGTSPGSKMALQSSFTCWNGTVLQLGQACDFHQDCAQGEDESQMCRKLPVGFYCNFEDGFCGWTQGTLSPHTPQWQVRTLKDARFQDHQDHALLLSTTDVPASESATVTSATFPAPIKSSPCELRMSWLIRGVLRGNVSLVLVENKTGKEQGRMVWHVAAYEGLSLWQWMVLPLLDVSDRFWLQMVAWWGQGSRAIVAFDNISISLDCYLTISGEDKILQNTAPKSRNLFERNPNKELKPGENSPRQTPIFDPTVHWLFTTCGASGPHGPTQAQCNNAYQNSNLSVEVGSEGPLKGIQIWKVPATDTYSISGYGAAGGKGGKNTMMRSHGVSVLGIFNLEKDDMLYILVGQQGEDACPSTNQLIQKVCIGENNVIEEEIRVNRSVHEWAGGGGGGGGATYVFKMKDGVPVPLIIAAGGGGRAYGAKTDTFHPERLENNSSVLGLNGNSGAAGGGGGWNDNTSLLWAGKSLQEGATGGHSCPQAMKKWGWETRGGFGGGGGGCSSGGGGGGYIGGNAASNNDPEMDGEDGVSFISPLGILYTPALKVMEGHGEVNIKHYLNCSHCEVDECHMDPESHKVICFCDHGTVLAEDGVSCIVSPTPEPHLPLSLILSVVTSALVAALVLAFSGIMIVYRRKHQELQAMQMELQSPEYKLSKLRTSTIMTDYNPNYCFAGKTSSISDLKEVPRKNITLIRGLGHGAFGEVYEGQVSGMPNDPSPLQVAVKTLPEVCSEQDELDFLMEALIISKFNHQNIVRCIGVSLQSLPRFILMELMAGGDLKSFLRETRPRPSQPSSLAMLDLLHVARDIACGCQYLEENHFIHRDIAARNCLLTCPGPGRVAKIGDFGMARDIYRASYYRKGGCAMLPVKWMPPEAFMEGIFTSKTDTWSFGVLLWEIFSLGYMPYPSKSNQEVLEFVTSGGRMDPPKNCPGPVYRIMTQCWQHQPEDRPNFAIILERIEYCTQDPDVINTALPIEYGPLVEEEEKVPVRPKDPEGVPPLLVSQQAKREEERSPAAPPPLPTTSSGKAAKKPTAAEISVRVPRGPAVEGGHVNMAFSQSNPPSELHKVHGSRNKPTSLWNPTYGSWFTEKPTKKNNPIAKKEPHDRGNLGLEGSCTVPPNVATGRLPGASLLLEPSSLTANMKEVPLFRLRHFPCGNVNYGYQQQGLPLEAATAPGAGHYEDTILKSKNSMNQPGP
Sequence of ALK (Q9UM73 19-1620): as the sequence (Q9UM73 19-1620 L1196M) above, with M1178L counted along it
Sequence of ALK(G1202R) (Q9UM73 19-1620 G1202R): as the sequence (Q9UM73 19-1620 L1196M) above, with M1178L, G1184R counted along it

| pIC50 [1] | pIC50 [2] | pIC50 [3] | pIC50 [4] | pIC50 [5] | Structure (SMILES) |
| --- | --- | --- | --- | --- | --- |
| 8.96 | 7.75 | 9.70 |  |  | Cc1cc(Nc2ncc(Cl)c(Nc3ccccc3N(C)S(C)(=O)=O)n2)c(OC(C)C)cc1C1=CCN(C2CCOCC2)CC1 [Example 1, N-(2-((5-chloro-2-((2-isopropoxy-5-methyl-4-(1-(tetrahydro-2H-pyran-4-yl)-1,2,3,6-tetrahydropyridin-4-yl)phenyl)amino)pyrimidin-4-yl)amino)phenyl)-N-methylmethanesulfonamide] |
| 8.74 | 7.59 | 9.22 |  |  | Cc1cc(Nc2ncc(Cl)c(Nc3ccccc3NS(C)(=O)=O)n2)c(OC(C)C)cc1C1=CCN(C2CCOCC2)CC1 [Example 2, N-(2-((5-chloro-2-((2-isopropoxy-5-methyl-4-(1-(tetrahydro-2H-pyran-4-yl)-1,2,3,6-tetrahydropyridin-4-yl)phenyl)amino)pyrimidin-4-yl)amino)phenyl)methanesulfonamide] |
| 9.22 | 9.15 | 10.30 | 7.50 | 7.37 | Cc1cc(Nc2ncc(Cl)c(Nc3ccccc3N(C)S(=O)(=O)C3CC3)n2)c(OC(C)C)cc1C1=CCN(C2CCOCC2)CC1 [Example 3, N-(2-((5-chloro-2-((2-isopropoxy-5-methyl-4-(1-(tetrahydro-2H-pyran-4-yl)-1,2,3,6-tetrahydropyridin-4-yl)phenyl)amino)pyrimidin-4-yl)amino)phenyl)-N-methylcyclopropanesulfonamide] |
| 9.05 | 6.79 | 9.52 |  |  | Cc1cc(Nc2ncc(Cl)c(Nc3ccccc3N(C)S(=O)(=O)C(C)C)n2)c(OC(C)C)cc1C1=CCN(C2CCOCC2)CC1 [Example 4, N-(2-((5-chloro-2-((2-isopropoxy-5-methyl-4-(1-(tetrahydro-2H-pyran-4-yl)-1,2,3,6-tetrahydropyridin-4-yl)phenyl)amino)pyrimidin-4-yl)amino)phenyl)-N-methylpropane-2-sulfonamide] |
| 8.51 | 6.82 | 9.30 |  |  | Cc1cc(Nc2ncc(Cl)c(Nc3ccccc3N(C3CC3)S(C)(=O)=O)n2)c(OC(C)C)cc1C1=CCN(C2CCOCC2)CC1 [Example 5, N-(2-((5-chloro-2-((2-isopropoxy-5-methyl-4-(1-(tetrahydro-2H-pyran-4-yl)-1,2,3,6-tetrahydropyridin-4-yl)phenyl)amino)pyrimidin-4-yl)amino)phenyl)-N-cyclopropylmethanesulfonamide] |
| 9.22 | 6.60 | 8.17 |  |  | Cc1cc(Nc2ncc(Cl)c(Nc3ccccc3N(C(C)C)S(C)(=O)=O)n2)c(OC(C)C)cc1C1=CCN(C2CCOCC2)CC1 [Example 6, N-(2-((5-chloro-2-((2-isopropoxy-5-methyl-4-(1-(tetrahydro-2H-pyran-4-yl)-1,2,3,6-tetrahydropyridin-4-yl)phenyl)amino)pyrimidin-4-yl)amino)phenyl)-N-isopropylmethanesulfonamide] |
| 9.30 | 7.98 | 10.30 | 7.41 | 7.77 | Cc1cc(Nc2ncc(Cl)c(Nc3ccccc3N(C)S(C)(=O)=O)n2)c(OCC(F)(F)F)cc1C1=CCN(C2CCOCC2)CC1 [Example 7, N-(2-((5-chloro-2-((5-methyl-4-(1-(tetrahydro-2H-pyran-4-yl)-1,2,3,6-tetrahydropyridin-4-yl)-2-(2,2,2-trifluoroethoxy)phenyl)amino)pyrimidin-4-yl)amino)phenyl)-N-methylmethanesulfonamide] |
| 9.22 | 7.75 | 10.15 | 7.66 | 7.68 | Cc1cc(Nc2ncc(Cl)c(Nc3ccccc3N(C)S(N)(=O)=O)n2)c(OC(C)C)cc1C1=CCN(C2CCOCC2)CC1 [Example 8] |

| Structure (SMILES) | pIC50 [1] | pIC50 [2] | pIC50 [3] | pIC50 [4] | pIC50 [5] |
| --- | --- | --- | --- | --- | --- |
| Cc1cc(Nc2ncc(Cl)c(Nc3ccccc3S(=O)(=O)C(C)C)n2)c(OC(C)C)cc1C1=CCN(C2CCOCC2)CC1 [APG-2449, reference compound] | 9.10 | < 6.00 | 9.05 | 7.06 | 7.20 |
